Values after ≈ are worked out from the molar mass of the structure shown.
Tests used:
HEp-2 = experiment: Cytotoxicity against human Hep2 cells after 48 hrs; conditions: HEp-2, 48 h
Caco-2 = experiment: Cytotoxicity against human Caco-2 cells after 48 hrs; conditions: Caco-2, 48 h

**Q.** `COc1cccc2c1C(=O)c1c(O)c3c(c(O)c1C2=O)C[C@@](O)(C(=O)CO)C[C@@H]3O[C@H]1C[C@H](N)[C@H](O)[C@H](C)O1` [DOXORUBICIN] was tested. Which IC50 (HEp-2) did it give?
**A.** 0.4 µg/mL (≈ 0.736 µM)

**Q.** What about the IC50 (Caco-2) of the same compound?
**A.** 1 µg/mL (≈ 1.84 µM)

**Q.** Which IC50 (HEp-2) does the source give for `Cc1ccc(NC(=O)c2c(-c3ccccc3)c(-c3ccc(Cl)cc3)nn2-c2ccccc2)cc1` here?
**A.** 1.21 µg/mL (≈ 2.61 µM)

**Q.** And the IC50 (Caco-2)?
**A.** 0.67 µg/mL (≈ 1.44 µM)

**Q.** For `O=C(c1c(-c2ccccc2)c(-c2ccccc2)nn1-c1ccccc1)n1c(=S)[nH]c2ccccc21`, which IC50 (HEp-2) is on record?
**A.** 7.18 µg/mL (≈ 15.2 µM)

**Q.** And the IC50 (Caco-2)?
**A.** 1.48 µg/mL (≈ 3.13 µM)

**Q.** How did the IC50 (HEp-2) turn out when `Cc1ccc(NC(=O)c2c(-c3ccccc3)c(-c3ccccc3)nn2-c2ccccc2)cc1` was run?
**A.** 1.21 µg/mL (≈ 2.82 µM)

**Q.** And the IC50 (Caco-2)?
**A.** 2.21 µg/mL (≈ 5.15 µM)

**Q.** What does the source list for `O=C(Nc1ccccc1)c1c(-c2ccccc2)c(-c2ccccc2)nn1-c1ccccc1`?
**A.** IC50 (HEp-2): 1.5 µg/mL (≈ 3.61 µM); IC50 (Caco-2): 1.68 µg/mL (≈ 4.04 µM)

**Q.** What does the source list for `Cc1ccc(NC(=O)c2c(-c3ccc(Cl)cc3)c(-c3ccccc3)nn2-c2ccccc2)cc1`?
**A.** IC50 (HEp-2): 0.81 µg/mL (≈ 1.75 µM); IC50 (Caco-2): 1.54 µg/mL (≈ 3.32 µM)

**Q.** Which results are given for `O=C(Nc1ccccc1)c1c(-c2ccc(Cl)cc2)c(-c2ccccc2)nn1-c1ccccc1`?
**A.** IC50 (HEp-2): 0.74 µg/mL (≈ 1.64 µM); IC50 (Caco-2): 1.74 µg/mL (≈ 3.87 µM)

**Q.** Which IC50 (HEp-2) does the source give for `O=C(c1c(-c2ccc(Cl)cc2)c(-c2ccccc2)nn1-c1ccccc1)n1c(=S)[nH]c2ccccc21` here?
**A.** 1.54 µg/mL (≈ 3.04 µM)

**Q.** What about the IC50 (Caco-2) of the same compound?
**A.** 3.29 µg/mL (≈ 6.49 µM)

— ChEMBL document CHEMBL1165884, “Microwave-assisted synthesis and in-vitro anti-tumor activity of 1,3,4-triaryl-5-N-arylpyrazole-carboxamides” (Eur J Med Chem, 2010)
